# According to article PMC10949855 (Journal of veterinary pharmacology and therapeutics, 2022):
# System: healthy dogs
# Experiment: Sedation score
# Format: in vivo, dogs (Beagles)
# [1] = IV CRI 0.2 mg/kg + 0.2 mg/kg/hr for 8 hr, 0.5 hr
# [2] = IV CRI 0.2 mg/kg + 0.2 mg/kg/hr for 8 hr, 1 hr
# [3] = IV CRI 0.2 mg/kg + 0.2 mg/kg/hr for 8 hr, 1.5 hr
# [4] = IV CRI 0.2 mg/kg + 0.2 mg/kg/hr for 8 hr, 2 hr
# [5] = IV CRI 0.2 mg/kg + 0.2 mg/kg/hr for 8 hr, 3 hr
# [6] = IV CRI 0.2 mg/kg + 0.2 mg/kg/hr for 8 hr, 4 hr
# [7] = IV CRI 0.2 mg/kg + 0.2 mg/kg/hr for 8 hr, 5 hr
# [8] = IV CRI 0.2 mg/kg + 0.2 mg/kg/hr for 8 hr, 6 hr
# [9] = IV CRI 0.2 mg/kg + 0.2 mg/kg/hr for 8 hr, 7 hr
# [10] = IV CRI 0.2 mg/kg + 0.2 mg/kg/hr for 8 hr, 8 hr
# [11] = IV CRI 0.2 mg/kg + 0.2 mg/kg/hr for 8 hr, 9 hr
# [12] = IV CRI 0.2 mg/kg + 0.2 mg/kg/hr for 8 hr, 10 hr
# [13] = IV CRI 0.2 mg/kg + 0.2 mg/kg/hr for 8 hr, 11 hr
# [14] = IV CRI 0.2 mg/kg + 0.2 mg/kg/hr for 8 hr, 12 hr
# [15] = IV CRI 0.2 mg/kg + 0.2 mg/kg/hr for 8 hr, 24 hr
smiles,measurement,setting,value
Oc1ccc2c(c1)[C@@]13CCCC[C@@]1(O)[C@@H](C2)N(CC1CCC1)CC3 [butorphanol],number of dogs with sedation score 0,[1],0
same,number of dogs with sedation score 1,[1],3
same,number of dogs with sedation score 2,[1],2
same,number of dogs with sedation score 3,[1],0
same,number of dogs with sedation score 0,[2],0
same,number of dogs with sedation score 1,[2],3
same,number of dogs with sedation score 2,[2],1
same,number of dogs with sedation score 3,[2],1
same,number of dogs with sedation score 0,[3],0
same,number of dogs with sedation score 1,[3],3
same,number of dogs with sedation score 2,[3],1
same,number of dogs with sedation score 3,[3],1
same,number of dogs with sedation score 0,[4],0
same,number of dogs with sedation score 1,[4],3
same,number of dogs with sedation score 2,[4],2
same,number of dogs with sedation score 3,[4],0
same,number of dogs with sedation score 0,[5],0
same,number of dogs with sedation score 1,[5],3
same,number of dogs with sedation score 2,[5],2
same,number of dogs with sedation score 3,[5],0
same,number of dogs with sedation score 0,[6],0
same,number of dogs with sedation score 1,[6],4
same,number of dogs with sedation score 2,[6],1
same,number of dogs with sedation score 3,[6],0
same,number of dogs with sedation score 0,[7],0
same,number of dogs with sedation score 1,[7],4
same,number of dogs with sedation score 2,[7],1
same,number of dogs with sedation score 3,[7],0
same,number of dogs with sedation score 0,[8],0
same,number of dogs with sedation score 1,[8],4
same,number of dogs with sedation score 2,[8],1
same,number of dogs with sedation score 3,[8],0
same,number of dogs with sedation score 0,[9],0
same,number of dogs with sedation score 1,[9],4
same,number of dogs with sedation score 2,[9],1
same,number of dogs with sedation score 3,[9],0
same,number of dogs with sedation score 0,[10],0
same,number of dogs with sedation score 1,[10],3
same,number of dogs with sedation score 2,[10],2
same,number of dogs with sedation score 3,[10],0
same,number of dogs with sedation score 0,[11],0
same,number of dogs with sedation score 1,[11],5
same,number of dogs with sedation score 2,[11],0
same,number of dogs with sedation score 3,[11],0
same,number of dogs with sedation score 0,[12],0
same,number of dogs with sedation score 1,[12],5
same,number of dogs with sedation score 2,[12],0
same,number of dogs with sedation score 3,[12],0
same,number of dogs with sedation score 0,[13],2
same,number of dogs with sedation score 1,[13],3
same,number of dogs with sedation score 2,[13],0
same,number of dogs with sedation score 3,[13],0
same,number of dogs with sedation score 0,[14],4
same,number of dogs with sedation score 1,[14],1
same,number of dogs with sedation score 2,[14],0
same,number of dogs with sedation score 3,[14],0
same,number of dogs with sedation score 0,[15],5
same,number of dogs with sedation score 1,[15],0
same,number of dogs with sedation score 2,[15],0
same,number of dogs with sedation score 3,[15],0
same,time with moderate sedation or higher (sedation score >1) in at least one dog,IV bolus 0.4 mg/kg IV,1.5 to 2 h
same,number of dogs with sedation score 0,"IV bolus 0.4 mg/kg, 0.5 hr",0
same,number of dogs with sedation score 1,"IV bolus 0.4 mg/kg, 0.5 hr",6
same,number of dogs with sedation score 2,"IV bolus 0.4 mg/kg, 0.5 hr",0
same,number of dogs with sedation score 3,"IV bolus 0.4 mg/kg, 0.5 hr",0
same,number of dogs with sedation score 0,"IV bolus 0.4 mg/kg, 1 hr",0
same,number of dogs with sedation score 1,"IV bolus 0.4 mg/kg, 1 hr",6
same,number of dogs with sedation score 2,"IV bolus 0.4 mg/kg, 1 hr",0
same,number of dogs with sedation score 3,"IV bolus 0.4 mg/kg, 1 hr",0
same,number of dogs with sedation score 0,"IV bolus 0.4 mg/kg, 1.5 hr",0
same,number of dogs with sedation score 1,"IV bolus 0.4 mg/kg, 1.5 hr",5
same,number of dogs with sedation score 2,"IV bolus 0.4 mg/kg, 1.5 hr",1
same,number of dogs with sedation score 3,"IV bolus 0.4 mg/kg, 1.5 hr",0
same,number of dogs with sedation score 0,"IV bolus 0.4 mg/kg, 2 hr",0
same,number of dogs with sedation score 1,"IV bolus 0.4 mg/kg, 2 hr",5
same,number of dogs with sedation score 2,"IV bolus 0.4 mg/kg, 2 hr",1
same,number of dogs with sedation score 3,"IV bolus 0.4 mg/kg, 2 hr",0
same,number of dogs with sedation score 0,"IV bolus 0.4 mg/kg, 3 hr",0
same,number of dogs with sedation score 1,"IV bolus 0.4 mg/kg, 3 hr",6
same,number of dogs with sedation score 2,"IV bolus 0.4 mg/kg, 3 hr",0
same,number of dogs with sedation score 3,"IV bolus 0.4 mg/kg, 3 hr",0
same,number of dogs with sedation score 0,"IV bolus 0.4 mg/kg, 4 hr",1
same,number of dogs with sedation score 1,"IV bolus 0.4 mg/kg, 4 hr",5
same,number of dogs with sedation score 2,"IV bolus 0.4 mg/kg, 4 hr",0
same,number of dogs with sedation score 3,"IV bolus 0.4 mg/kg, 4 hr",0
same,number of dogs with sedation score 0,"IV bolus 0.4 mg/kg, 5 hr",1
same,number of dogs with sedation score 1,"IV bolus 0.4 mg/kg, 5 hr",5
same,number of dogs with sedation score 2,"IV bolus 0.4 mg/kg, 5 hr",0
same,number of dogs with sedation score 3,"IV bolus 0.4 mg/kg, 5 hr",0
same,number of dogs with sedation score 0,"IV bolus 0.4 mg/kg, 6 hr",5
same,number of dogs with sedation score 1,"IV bolus 0.4 mg/kg, 6 hr",1
same,number of dogs with sedation score 2,"IV bolus 0.4 mg/kg, 6 hr",0
same,number of dogs with sedation score 3,"IV bolus 0.4 mg/kg, 6 hr",0
same,number of dogs with sedation score 0,"IV bolus 0.4 mg/kg, 7 hr",5
same,number of dogs with sedation score 1,"IV bolus 0.4 mg/kg, 7 hr",1
same,number of dogs with sedation score 2,"IV bolus 0.4 mg/kg, 7 hr",0
same,number of dogs with sedation score 3,"IV bolus 0.4 mg/kg, 7 hr",0
same,number of dogs with sedation score 0,"IV bolus 0.4 mg/kg, 8 hr",6
same,number of dogs with sedation score 1,"IV bolus 0.4 mg/kg, 8 hr",0
same,number of dogs with sedation score 2,"IV bolus 0.4 mg/kg, 8 hr",0
same,number of dogs with sedation score 3,"IV bolus 0.4 mg/kg, 8 hr",0
same,number of dogs with sedation score 0,"IV bolus 0.4 mg/kg, 9 hr",6
same,number of dogs with sedation score 1,"IV bolus 0.4 mg/kg, 9 hr",0
same,number of dogs with sedation score 2,"IV bolus 0.4 mg/kg, 9 hr",0
same,number of dogs with sedation score 3,"IV bolus 0.4 mg/kg, 9 hr",0
same,number of dogs with sedation score 0,"IV bolus 0.4 mg/kg, 10 hr",6
same,number of dogs with sedation score 1,"IV bolus 0.4 mg/kg, 10 hr",0
same,number of dogs with sedation score 2,"IV bolus 0.4 mg/kg, 10 hr",0
same,number of dogs with sedation score 3,"IV bolus 0.4 mg/kg, 10 hr",0
same,number of dogs with sedation score 0,"IV bolus 0.4 mg/kg, 11 hr",6
same,number of dogs with sedation score 1,"IV bolus 0.4 mg/kg, 11 hr",0
same,number of dogs with sedation score 2,"IV bolus 0.4 mg/kg, 11 hr",0
same,number of dogs with sedation score 3,"IV bolus 0.4 mg/kg, 11 hr",0
same,number of dogs with sedation score 0,"IV bolus 0.4 mg/kg, 12 hr",6
same,number of dogs with sedation score 1,"IV bolus 0.4 mg/kg, 12 hr",0
same,number of dogs with sedation score 2,"IV bolus 0.4 mg/kg, 12 hr",0
same,number of dogs with sedation score 3,"IV bolus 0.4 mg/kg, 12 hr",0
same,number of dogs with sedation score 0,"IV bolus 0.4 mg/kg, 24 hr",4
same,number of dogs with sedation score 1,"IV bolus 0.4 mg/kg, 24 hr",0
same,number of dogs with sedation score 2,"IV bolus 0.4 mg/kg, 24 hr",0
same,number of dogs with sedation score 3,"IV bolus 0.4 mg/kg, 24 hr",0
